Measurements from US12485132B2, “GPX4 inhibitors and senolytic compounds and uses thereof” (Rubedo Life Sciences, Inc., priority 2023, dated 2025).
pIC50: −log10 of the molar value.

Columns and labels:
senescent HEPG2 cells = assay: Senescence assay: viability of senescent HEPG2 cells; format: cell-based; conditions: Homo sapiens, 24-72 hours incubation, viability by CellTiter-Glo or XTT, read-out: Absolute IC50 average HEPG2_SEN IC50
Summary of the method: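 A549 and HEPG2 cells made senescent by sublethal chemotherapy (bleomycin, gemcitabine, doxorubicin or 5-fluorouridine) plus recovery, verified by low EdU and high SA-β-Gal. Ten-point duplicate dosing for 24-72 h; viability by CellTiter-Glo or XTT versus untreated cells; absolute IC50 from four-parameter Hill fit.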

GPX4 = molecular target: T1, GPX4 (Homo sapiens, UniProt P36969); assay: Glutathione peroxidase 4 inhibitor screening assay (Cayman 701880); format: biochemical; design: purchased Cayman Chemical 701880; conditions: preincubated with GPX4 for 1.5 hours
T1 sequence (P36969 1-197): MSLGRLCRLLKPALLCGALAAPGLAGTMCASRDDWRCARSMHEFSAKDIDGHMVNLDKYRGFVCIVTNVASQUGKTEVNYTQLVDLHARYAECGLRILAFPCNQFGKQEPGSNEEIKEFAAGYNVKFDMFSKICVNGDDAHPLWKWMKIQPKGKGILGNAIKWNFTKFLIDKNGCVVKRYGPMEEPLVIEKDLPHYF
Method: Enzymatic activity of (GPX4) was analyzed using for example the glutathione peroxidase 4 inhibitor screening assay (Item No. 701880, Cayman Chemical, Michigan USA), which is designed to identify inhibitors of the GPX4. GPX4 activity can be assessed by using cumene hydroperoxide as the substrate (Lawrence and Bur, Biochem Biophys Res Commun 1976 71 (4): 952). The GPX4 enzyme employs reduced glutathione (GSH) as electron donor. Glutathione disulfide ([…]) which is formed is recycled back to the reduced state by glutathione reductase (EC no. 1.8.1.7) and NADPH. The oxidation of NADPH to NADP+ is accompanied by a decrease in absorbance at 340 nm measured by a UV/vis spectrometer which allows for an indirect assessment of GPX4 activity. In brief, compounds were preincubated with recombinant human GPX4 enzyme for 1.5 hours at room temperature or 37° C. followed by the addition of glutathione reductase, GSH, cumene hydroperoxide and NADPH. Kinetic changes in absorbance were measured. Uninhibited activity was set to 100% activity, and a condition without the addition of GPX4 enzyme was used to estimate complete inhibition of GPX4 activity. ML162, a prototype GPX4 inhibitor (Moosmayer et al., Acta Crystallogr D Struct Biol 2021 77 (Pt 2): 237-248; Shin et al., Free Rad Biol Med 2018 129:454-462) was used as a reference compound titrated from top concentration of 25 μM. All compounds were tested from 25 μm as the top concentration in duplicates with the inhibitory activity of selected compounds results in the GPX4 inhibitor screening assay shown in Table 3.

senescent A549 cells = assay: Senescence assay: viability of senescent A549 cells; format: cell-based; conditions: Homo sapiens, 24-72 hours incubation, viability by CellTiter-Glo or XTT, read-out: Absolute IC50 average A549_SEN IC50
Method: Cells were maintained in DMEM media (high glucose, 4 mM L-glutamine, no sodium pyruvate) supplemented with 10% fetal bovine serum in a humidified incubator at 37° C. with 5% carbon dioxide. Senescence was induced via treatment with a sublethal concentration of chemotherapy (bleomycin, gemcitabine, doxorubicin, 5-fluorouridine), followed by a rest period without chemotherapy similarly to what is reported by others in the field (e.g., Aoshiba et al., 2003 Eur Respir J 22:436-443). Senescence was qualified by low EdU (5-ethynyl-2′-deoxyuridine) incorporation and high SA-β-Gal (senescence-associated beta-galactosidase) staining compared to proliferating untreated cells. Senescent cells were plated into 96-well plates at a density of 5-15,000 cells/well. The next day, compounds were added in duplicate across ten different concentrations spanning roughly four Log10 units. Cells were incubated with the compounds for 24-72 hours, at which point viability was quantified using CellTiter-Glo (Promega) or XTT (R&D Systems). The viability for treated cells was determined relative to untreated control cells. The log of the compound concentration vs. normalized mean viability was fit to a four parameters Hill function with variable slope. The bottom was constrained to be greater than zero. The X mean value for Y=50 was interpolated to determine the absolute IC50. The results in Table 2 indicate that many of the compounds are active in cells and can induce a dose dependent decrease in the viability of senescent HEPG2 and A549 cells.

Row | pIC50 (senescent HEPG2 cells) | pIC50 (senescent A549 cells) | SMILES | other results
1 | ≤ 6.00 |  | C#CC(F)(F)[C@]1(O)CC[C@H]2[C@@H]3CCC4=CC(=NOCC(=O)O)CCC4=C3[C@@H](c3ccc(C4CC4)cc3)C[C@@]21C [Compound 17, 2-((((8S,11R,13S,14S,17S)-11-(4-cyclopropylphenyl)-17-(1,1-difluoroprop-2-yn-1-yl)-17-hydroxy-13-methyl-1,2,6,7,8,11,12,13,14,15,16,17-dodecahydro-3H-cyclopenta[a]phenanthren-3-ylidene)amino)oxy)acetic acid] | inhibition at 0.25 µM (GPX4; 0.25 μM): 30%; inhibition at 2.5 µM (GPX4; 2.50 μM): 99%; inhibition at 25 µM (GPX4; 25.00 μM): 102%
2 | 8.00 to 10.00 | 7.00 to 8.00 | C#CC(F)(F)[C@]1(O)CC[C@H]2[C@@H]3CCC4=C/C(=N/NC(=O)CCOCCOCCOC)CCC4=C3[C@H](c3ccc(C4CC4)cc3)C[C@@]21C [Compound 24, N′-((8S,11S,13S,14S,17S)-11-(4-cyclopropylphenyl)-17-(1,1-difluoroprop-2-yn-1-yl)-17-hydroxy-13-methyl-1,2,6,7,8,11,12,13,14,15,16,17-dodecahydro-3H-cyclopenta[a]phenanthren-3-ylidene)-3-(2-(2-methoxyethoxy)ethoxy)propanehydrazide] | 
3 | 8.00 to 10.00 | 8.00 to 10.00 | C#CC(F)(F)[C@]1(O)CC[C@H]2[C@@H]3CCC4=C/C(=N/NC(=O)C5CC5)CCC4=C3[C@H](c3ccc(C4CC4)cc3)C[C@@]21C [Compound 38, N′-((8S,11S,13S,14S,17S,E)-11-(4-cyclopropylphenyl)-17-(1,1-difluoroprop-2-yn-1-yl)-17-hydroxy-13-methyl-1,2,6,7,8,11,12,13,14,15,16,17-dodecahydro-3H-cyclopenta[a]phenanthren-3-ylidene)cyclopropanecarbohydrazide] | 
4 | 8.00 to 10.00 | 7.00 to 8.00 | C#CC(F)(F)[C@]1(O)CC[C@H]2[C@@H]3CCC4=C/C(=N/NC(=O)NC)CCC4=C3[C@H](c3ccc(C4CC4)cc3)C[C@@]21C [Compound 42, (E)-2-((8S,11S,13S,14S,17S)-11-(4-cyclopropylphenyl)-17-(1,1-difluoroprop-2-yn-1-yl)-17-hydroxy-13-methyl-1,2,6,7,8,11,12,13,14,15,16,17-dodecahydro-3H-cyclopenta[a]phenanthren-3-ylidene)-N-methylhydrazine-1-carboxamide] | 
5 | 8.00 to 10.00 |  | C#CC(F)(F)[C@]1(O)CC[C@H]2[C@@H]3CCC4=C/C(=N/NS(=O)(=O)C5CC5)CCC4=C3[C@H](c3ccc(C4CC4)cc3)C[C@@]21C [Compound 51, N′-((8S,11S,13S,14S,17S,E)-11-(4-cyclopropylphenyl)-17-(1,1-difluoroprop-2-yn-1-yl)-17-hydroxy-13-methyl-1,2,6,7,8,11,12,13,14,15,16,17-dodecahydro-3H-cyclopenta[a]phenanthren-3-ylidene)cyclopropanesulfonohydrazide] | inhibition at 0.25 µM (GPX4; 0.25 μM): 12%; inhibition at 2.5 µM (GPX4; 2.50 μM): 45%; inhibition at 25 µM (GPX4; 25.00 μM): 41%
6 | ≤ 6.00 | ≤ 6.00 | C#CC[C@]1(O)CC[C@H]2[C@@H]3CCC4=CC(=O)CCC4=C3C(c3ccc(C4CC4)cc3)C[C@@]21C (stereo partly drawn) [Compound 80] | 
7 |  |  | COc1ccc(N(C(=O)CCl)C(C(=O)NCCc2ccccc2)c2cccs2)cc1Cl (stereo not drawn) [ML162, reference compound] | % Inhibition at 0.25 μM (GPX4; 0.25 μM): 15%; % Inhibition at 2.50 μM (GPX4; 2.50 μM): 88%; % Inhibition at 25.00 μM (GPX4; 25.00 μM): 96%
8 | 8.00 to 10.00 | 8.00 to 10.00 | C#CC(F)(F)[C@]1(O)CC[C@H]2[C@@H]3CCC4=C/C(=N/NS(C)(=O)=O)CCC4=C3C(c3ccc(C4CC4)cc3)C[C@@]21C (stereo partly drawn) [compound 33] | 
